According to patent US20210401863A1, “TREATMENT AND PREVENTION OF NEISSERIA GONORRHOEAE INFECTION USING CMP-ACTIVATED NONULOSONATE ANALOG COMPOUNDS” (NATIONAL RESEARCH COUNCIL OF CANADA, priority 2015, published 2021):
Entries after “also recorded” stand apart in the source; their conditions may differ.

Legend:
[1] = target: T1, gonococcal LOS sialyltransferase (Lst) (Neisseria gonorrhoeae, UniProt P72074); test: mAb 3F11 binding by flow cytometry (incorporation of NulO on LNnT LOS by Lst); assay type: cell-based, N. gonorrhoeae F62 ΔlgtD; settings: F62 ΔlgtD grown in media with 20 μg/mL CMP-NulO
T1 construct: CMP-KDN served as a substrate for gonococcal Lst in the context of live bacteria; endogenous in cells; host or cells: N. gonorrhoeae F62 ΔlgtD (live bacteria)
Experimental: FIG. 1: CMP-KDN serves as a substrate for gonococcal LOS and incorporation of KDN on gonococcal lacto-N-neotetraose LOS enhances factor H (FH) binding. A. Incorporation of KDN by gonococci. Gonococcal strain F62 ΔlgtD (expresses lacto-N-neotetraose (LNnT) from Hepl) was grown in media containing CMP-KDN (20 μg/mL) and binding of mAb 3F11 was measured by flow cytometry. mAb 3F11 binds only to […] LNnT; substitution of the terminal Gal of LNnT, for example with a NulO, will decrease mAb 3F11 binding. Approximately 5×10^7 bacteria were incubated with mAb 3F11 tissue culture supernatants for 15 minutes at 37° C. Binding of mAb 3F11 was disclosed with anti-mouse IgM FITC (Sigma; dilution of 1:100). Bacteria grown in CMP-Neu5Ac or in media alone were used as positive and negative controls for sialylation, respectively. A representative histogram is shown in the upper panel. […] B. Factor H (FH) binding to gonococci grown in CMP-KDN. Approximately 5×10^7 bacteria grown in media alone (no sialic acid), media plus CMP-Neu5Ac (20 μg/mL; positive control for FH binding) or in media containing CMP-KDN (20 μg/mL) were incubated with purified human FH (20 μg/mL) in HBSS** for 15 minutes at 37° C. and bound FH was detected with affinity isolated goat anti-human FH followed by anti-goat IgG FITC (Sigma; 1:100 dilution). A representative histogram is shown in the upper panel.
FIG. 3: CMP-KDN7N3 serves as a substrate for gonococcal Lst resulting in incorporation of KDN7N3 on gonococcal lacto-N-neotetraose (LNnT) LOS—Incorporation of KDN7N3 by gonococci. Gonococcal strain F62ΔlgtD (expresses lacto-N-neotetraose (LNnT) from Hepl) was grown in media containing CMP-KDN7N3 (20 μg/mL) and binding of mAb 3F11 was measured by flow cytometry. mAb 3F11 binds only to […] LNnT; substitution of the terminal Gal of LNnT, for example with a NulO, will decrease mAb 3F11 binding. Approximately 5×10^7 bacteria were incubated with mAb 3F11 tissue culture supernatants for 15 minutes at 37° C. Binding of mAb 3F11 was disclosed with anti-mouse IgM FITC (Sigma; dilution of 1:100). […]

[2] = system: N. gonorrhoeae H041; test: BALB/c mouse vaginal colonization model; assay type: in vivo; settings: 10 μg intravaginally daily; Premarin treated BALB/c mice
Experimental: FIG. 2: Female BALB/c mice 5-6 weeks of age (Jackson Laboratories) in the diestrus phase of the estrous cycle were started on treatment (that day) with 0.5 mg of Premarin (Pfizer) given subcutaneously on each of three days; −2, 0 and +2 days (before, the day of and after inoculation) to prolong the estrus phase of the cycle and promote susceptibility to N. gonorrhoeae infection. Antibiotics (vancomycin, colistin, neomycin, trimethoprim and streptomycin) that were ineffective against N. gonorrhoeae were also used to reduce competitive microflora. Mice (n=40) were then infected with 10^6 CFU of strain H041. Three groups of mice (n=10/group) were treated with 10 μg intravaginally daily (first dose was administered 30 minutes before the introduction of bacteria) with one of the following CMP-NulOs in normal saline: CMP-Leg5Ac7Ac, CMP-Neu5Ac9Az or CMP-KDN. A fourth group (n=10) was given saline (vehicle control). Vaginal swabs were obtained daily from each animal, serially diluted and plated on chocolate agar containing vancomycin, colistin, neomycin, trimethoprim and streptomycin (VCNTS) to quantify bacterial loads. A. Median time to clearance was estimated using Kaplan-Meier survival curves; the times to clearance were compared between groups using a log-rank test. P<0.0001 for the control versus each of the treatment groups. Time to clearance between each of the treatment groups was similar (P>0.05). B. The mean area under the curve (log10 CFU vs. time) was computed for each mouse to estimate the bacterial burden over time (cumulative infection); the means under the curves were compared between groups using the Kruskal-Wallis nonparametric rank sum test because distributions were skewed or kurtotic. Groups were compared using Dunn's multiple comparison test. ****, P<0.0001; **, P<0.01; *, P<0.05. The differences among the groups that received CMP-NulOs were not significant.
The mouse model experiments and statistical analysis were conducted as described in the art and in U.S. Pat. No. 9,765,106. […]

T1 sequence (P72074 whole entry): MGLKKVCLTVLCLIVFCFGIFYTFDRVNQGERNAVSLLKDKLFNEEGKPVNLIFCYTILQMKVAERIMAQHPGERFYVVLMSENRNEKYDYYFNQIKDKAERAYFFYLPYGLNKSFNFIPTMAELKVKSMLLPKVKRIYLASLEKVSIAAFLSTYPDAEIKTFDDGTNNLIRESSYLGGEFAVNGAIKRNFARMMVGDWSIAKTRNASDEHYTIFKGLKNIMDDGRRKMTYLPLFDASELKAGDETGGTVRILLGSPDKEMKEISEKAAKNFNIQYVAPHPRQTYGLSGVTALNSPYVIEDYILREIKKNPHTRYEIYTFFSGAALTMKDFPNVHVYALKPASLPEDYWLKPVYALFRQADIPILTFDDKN

Nc1ccn([C@@H]2O[C@H](COP(=O)(O)O[C@@]3(C(=O)O)CC(O)[C@@H](O)C([C@H](O)[C@H](O)CO)O3)C(O)C2O)c(=O)n1 (stereo partly drawn) [CMP-KDN, cytidine 5′-monophospho-3-deoxy-D-glycero-D-galacto-nonulosonic acid]
binding of mAb 3F11 (use as substrate by gonococcal Lst) [1]: decreased binding of mAb 3F11 similarly | attenuation of N. gonorrhoeae H041 infection [2]: some efficacy; also recorded: significantly attenuated; also recorded: just as efficacious in an animal model of colonization
